Source: US20250313577A1, “TRICYCLIC PYRIDONES AND PYRIMIDONES” (ERASCA, INC, priority 2022, published 2025)

molecular target: T1, KRAS G12C (Homo sapiens, UniProt P01116, G12C); test: phospho-ERK HTRF assay in Ras Initiative (RI) KRAS G12C cells; type: cell-based; conditions: phospho-ERK1/2 HTRF, 11-point dose response from 2,500 nM, treatment for either 4 hours or 16 hours, read-out: pERK (RI)
T1 construct: expressed in transfected cells; host or cells: Ras Initiative (RI) KRAS G12C cells
Description: Inhibition of KRAS G12C-Mediates Phospho-ERK1/2 Inhibition by Compounds of Formula I
This Example illustrates that various compounds of the present disclosure inhibit KRAS G12C thereby mediating the downstream inhibition of phospho-ERK1/2.
KRAS G12C mutant cell lines, NCI H358 (ATCC, CRL-5807), and Ras Initiative (R1) KRAS G12C were cultured according to published protocols and maintained at 37° C. in 5% CO2. The phospho-ERK HTRF assay was executed following provider's protocol (CisBio #64AERPEH). NCI-H358 or RI KRAS G12C cells were plated at a density of 50,000 cells per well in a 96-well plate (Corning #3903) in respective medias (for NCI-H358, RPMI+10% FBS+1% Pen/Strep, and for RI KRAS G12C, DMEM+10% FBS+1% Pen/Strep+4 ug/ml Blasticidin) and maintained at 37° C. in 5% CO2. Cells were allowed to adhere overnight and treated the following day with a Tecan D300e Digital Dispenser (Tecan Group Ltd., Switzerland) using an 11-point dose response starting at 2,500 nM of exemplified compounds followed by sequential 1:3 dilutions for either 4 hours or 16 hours. Following compound treatment, the cells were washed once with ice-cold PBS. Cells were lysed by adding 50 μl of lysis buffer (1×) supplemented with 1× Pierce Halt Protease and Phosphatase inhibitor and incubated for 30 minutes at 4° C. with shaking. After lysis, 16 μL of cell lysate from the 96-well cell-culture plate was transferred to a 384-well plate (Perkin Elmer #6007290). The premixed antibody solution was prepared by mixing (vol/vol) advanced phospho-ERK1/2 d2 antibody and advanced phospho-ERK1/2 Eu Cryptate antibody. The premixed antibody solution ([…]) was added to the detection plate containing cell lysate. The detection plate was incubated overnight at 4° C., the HTRF signal was read the next day by using either a Spectramax M5 or Spectramax i3 microplate reader (Molecular Devices, San Jose, CA, USA), and data was processed according to manufacturer's protocol.
Compounds prepared according to the preceding procedures and characterized for inhibition of p-ERK according to the protocol provided herein are summarized in Table 3: […]

IC50	Compound
20 to 250 nM	C=CC(=O)N1[C@H](C)CN(c2nc(=O)n3c4c(c(-c5ccc(F)cc5)c(C(F)(F)F)cc24)SC[C@H](c2cccs2)C3)C[C@@H]1C [Example 124, (R)-8-((3S,5R)-4-acryloyl-3,5-dimethylpiperazin-1-yl)-11-(4-fluorophenyl)-3-(thiophen-2-yl)-10-(trifluoromethyl)-3,4-dihydro-2H,6H-[1,4]thiazepino[2,3,4-ij]quinazolin-6-one]
2 to 20 nM	C=CC(=O)N1[C@H](C)CN(c2nc(=O)n3c4c(c(-c5ccc(F)cc5)c(C(F)(F)F)cc24)SC[C@@H](c2cccs2)C3)C[C@@H]1C [Example 125, (S)-8-((3S,5R)-4-acryloyl-3,5-dimethylpiperazin-1-yl)-11-(4-fluorophenyl)-3-(thiophen-2-yl)-10-(trifluoromethyl)-3,4-dihydro-2H,6H-[1,4]thiazepino[2,3,4-ij]quinazolin-6-one]
0.5 to 2 nM	C=CC(=O)N1[C@H](C)CN(c2nc(=O)n3c4c(c(-c5ccc(F)cc5)c(C(F)(F)F)cc24)SC[C@@H](c2cncc(F)c2)C3)C[C@@H]1C [Example 126, (S)-8-((3S,5R)-4-acryloyl-3,5-dimethylpiperazin-1-yl)-11-(4-fluorophenyl)-3-(5-fluoropyridin-3-yl)-10-(trifluoromethyl)-3,4-dihydro-2H,6H-[1,4]thiazepino[2,3,4-ij]quinazolin-6-one]
20 to 250 nM	(3R,11S)-8-((3S,5R)-4-acryloyl-3,5-dimethylpiperazin-1-yl)-11-(5-chloro-2,4-difluorophenyl)-3-((S)-3,4-dihydropyridin-4-yl)-10-(trifluoromethyl)-3,4-dihydro-2H,6H-[1,4]thiazepino[2,3,4-ij]quinazolin-6-one [Example 101B]
